Measured values taken from ChEMBL document CHEMBL2086238, “Identification of ETP-46321, a potent and orally bioavailable PI3K α, δ inhibitor” (Bioorg Med Chem Lett, 2012).

Assays:
[1] = molecular target: Focal adhesion kinase 1 (Homo sapiens) (UniProt Q05397); experiment: Inhibition of FAK at 1 uM
[2] = molecular target: Dual specificity tyrosine-phosphorylation-regulated kinase 1A (Homo sapiens) (UniProt Q13627); experiment: Inhibition of DYRK1A at 5 uM
[3] = molecular target: T1, Inhibitor of nuclear factor kappa-B kinase subunit beta (Homo sapiens) (UniProt O14920); experiment: Inhibition of IKKbeta at 5 uM
T1 sequence (whole entry): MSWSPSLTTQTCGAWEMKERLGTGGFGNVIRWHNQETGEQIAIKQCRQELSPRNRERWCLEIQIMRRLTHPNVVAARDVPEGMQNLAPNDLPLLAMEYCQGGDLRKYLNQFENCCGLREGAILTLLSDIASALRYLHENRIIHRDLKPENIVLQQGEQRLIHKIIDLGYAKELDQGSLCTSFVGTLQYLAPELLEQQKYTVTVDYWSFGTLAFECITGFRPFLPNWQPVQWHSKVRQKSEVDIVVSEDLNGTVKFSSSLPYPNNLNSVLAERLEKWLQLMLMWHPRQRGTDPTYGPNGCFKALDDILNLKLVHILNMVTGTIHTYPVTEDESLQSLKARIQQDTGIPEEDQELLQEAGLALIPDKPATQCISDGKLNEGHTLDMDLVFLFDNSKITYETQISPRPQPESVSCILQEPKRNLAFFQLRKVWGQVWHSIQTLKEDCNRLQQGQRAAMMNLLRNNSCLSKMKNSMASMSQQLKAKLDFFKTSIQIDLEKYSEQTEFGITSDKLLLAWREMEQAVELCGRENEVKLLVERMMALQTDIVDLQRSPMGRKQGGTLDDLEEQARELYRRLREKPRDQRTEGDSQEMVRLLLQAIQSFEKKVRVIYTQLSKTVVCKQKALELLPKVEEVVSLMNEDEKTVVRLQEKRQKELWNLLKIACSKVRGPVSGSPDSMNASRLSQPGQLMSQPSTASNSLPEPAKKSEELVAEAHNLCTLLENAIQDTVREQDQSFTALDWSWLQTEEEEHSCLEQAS

[4] = molecular target: Tyrosine-protein kinase JAK2 (Homo sapiens) (UniProt O60674); experiment: Inhibition of JAK2 at 1 uM
[5] = molecular target: Mast/stem cell growth factor receptor Kit (Homo sapiens) (UniProt P10721); experiment: Inhibition of KIT at 1 uM
[6] = molecular target: T1, Inhibitor of nuclear factor kappa-B kinase subunit beta (Homo sapiens); experiment: Inhibition of IKKbeta at 1 uM
[7] = molecular target: Ribosomal protein S6 kinase alpha-1 (Homo sapiens) (UniProt Q15418); experiment: Inhibition of RPS6KA1 at 5 uM
[8] = Inhibition of PDGFR at 5 uM
[9] = molecular target: Mitogen-activated protein kinase 8 (Homo sapiens) (UniProt P45983); experiment: Inhibition of JNK1 at 1 uM
Mitogen-activated protein kinase 8 (Homo sapiens), sequence (P45983 whole entry): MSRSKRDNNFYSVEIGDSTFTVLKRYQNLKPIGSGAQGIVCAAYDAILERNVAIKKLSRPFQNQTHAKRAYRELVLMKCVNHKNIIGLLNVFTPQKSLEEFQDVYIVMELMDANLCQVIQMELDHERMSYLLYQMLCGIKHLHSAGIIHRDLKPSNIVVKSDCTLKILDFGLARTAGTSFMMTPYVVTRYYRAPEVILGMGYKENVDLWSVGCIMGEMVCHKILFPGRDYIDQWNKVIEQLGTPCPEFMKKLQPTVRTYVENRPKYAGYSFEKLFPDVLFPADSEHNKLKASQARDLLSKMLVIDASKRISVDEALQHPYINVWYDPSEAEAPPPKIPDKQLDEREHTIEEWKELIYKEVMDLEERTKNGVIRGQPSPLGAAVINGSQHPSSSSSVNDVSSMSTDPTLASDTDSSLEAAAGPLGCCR

[10] = molecular target: Serine/threonine-protein kinase PAK 1 (Homo sapiens) (UniProt Q13153); experiment: Inhibition of PAK1 at 5 uM
[11] = molecular target: Casein kinase I isoform alpha (Homo sapiens) (UniProt P48729); experiment: Inhibition of CK1alpha1 at 1 uM
Casein kinase I isoform alpha (Homo sapiens), sequence (P48729 2-337 limits assumed): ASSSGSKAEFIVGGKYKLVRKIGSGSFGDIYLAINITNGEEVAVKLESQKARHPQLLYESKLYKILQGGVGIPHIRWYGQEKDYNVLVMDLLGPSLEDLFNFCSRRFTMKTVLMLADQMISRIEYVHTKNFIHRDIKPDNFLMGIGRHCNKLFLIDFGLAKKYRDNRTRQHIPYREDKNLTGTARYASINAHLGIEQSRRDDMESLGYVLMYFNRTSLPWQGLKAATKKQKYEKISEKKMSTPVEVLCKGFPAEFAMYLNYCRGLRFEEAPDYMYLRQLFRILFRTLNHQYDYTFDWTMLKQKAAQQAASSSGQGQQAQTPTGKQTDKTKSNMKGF

[12] = molecular target: Insulin-like growth factor 1 receptor (Homo sapiens) (UniProt P08069); experiment: Inhibition of IGF1R at 1 uM
Insulin-like growth factor 1 receptor (Homo sapiens), sequence (P08069 31-736 limits assumed): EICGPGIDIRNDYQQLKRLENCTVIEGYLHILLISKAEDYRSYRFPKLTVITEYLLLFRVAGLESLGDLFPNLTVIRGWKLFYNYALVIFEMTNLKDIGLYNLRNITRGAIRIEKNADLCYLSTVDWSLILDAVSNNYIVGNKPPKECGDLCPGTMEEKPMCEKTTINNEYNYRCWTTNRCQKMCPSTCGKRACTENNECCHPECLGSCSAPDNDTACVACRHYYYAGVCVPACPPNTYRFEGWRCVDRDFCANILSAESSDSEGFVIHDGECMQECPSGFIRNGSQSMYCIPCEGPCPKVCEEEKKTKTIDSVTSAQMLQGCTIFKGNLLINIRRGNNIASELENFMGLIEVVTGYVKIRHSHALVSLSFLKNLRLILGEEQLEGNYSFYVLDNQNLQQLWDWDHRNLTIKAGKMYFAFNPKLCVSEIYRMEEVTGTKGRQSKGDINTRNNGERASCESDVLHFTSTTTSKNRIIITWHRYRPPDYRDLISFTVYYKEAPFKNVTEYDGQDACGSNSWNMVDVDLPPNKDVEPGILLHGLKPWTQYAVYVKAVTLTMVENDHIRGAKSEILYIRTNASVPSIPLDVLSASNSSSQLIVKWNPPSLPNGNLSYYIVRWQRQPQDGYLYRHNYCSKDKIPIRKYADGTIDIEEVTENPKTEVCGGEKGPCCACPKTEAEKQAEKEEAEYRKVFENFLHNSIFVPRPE
Insulin-like growth factor 1 receptor (Homo sapiens), sequence (P08069 741-1367 limits assumed): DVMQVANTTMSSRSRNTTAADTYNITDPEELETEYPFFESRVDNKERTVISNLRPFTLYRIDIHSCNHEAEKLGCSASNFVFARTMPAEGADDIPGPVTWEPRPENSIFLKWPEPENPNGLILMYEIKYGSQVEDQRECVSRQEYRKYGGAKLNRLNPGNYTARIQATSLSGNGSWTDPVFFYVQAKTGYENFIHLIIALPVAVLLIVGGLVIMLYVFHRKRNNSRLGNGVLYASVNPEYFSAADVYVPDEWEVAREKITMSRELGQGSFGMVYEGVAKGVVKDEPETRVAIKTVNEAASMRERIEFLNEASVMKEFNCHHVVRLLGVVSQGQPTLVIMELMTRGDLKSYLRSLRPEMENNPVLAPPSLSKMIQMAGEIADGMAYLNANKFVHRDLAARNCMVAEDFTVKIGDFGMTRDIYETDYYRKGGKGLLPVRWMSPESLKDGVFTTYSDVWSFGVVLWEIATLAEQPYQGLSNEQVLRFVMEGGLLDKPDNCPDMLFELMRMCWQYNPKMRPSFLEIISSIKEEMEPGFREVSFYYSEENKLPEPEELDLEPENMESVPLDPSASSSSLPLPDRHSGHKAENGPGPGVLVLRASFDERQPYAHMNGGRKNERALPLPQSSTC

[13] = molecular target: T2, Serine/threonine-protein kinase 4 (Homo sapiens) (UniProt Q13043); experiment: Inhibition of MST1 at 5 uM
T2 sequence (whole entry): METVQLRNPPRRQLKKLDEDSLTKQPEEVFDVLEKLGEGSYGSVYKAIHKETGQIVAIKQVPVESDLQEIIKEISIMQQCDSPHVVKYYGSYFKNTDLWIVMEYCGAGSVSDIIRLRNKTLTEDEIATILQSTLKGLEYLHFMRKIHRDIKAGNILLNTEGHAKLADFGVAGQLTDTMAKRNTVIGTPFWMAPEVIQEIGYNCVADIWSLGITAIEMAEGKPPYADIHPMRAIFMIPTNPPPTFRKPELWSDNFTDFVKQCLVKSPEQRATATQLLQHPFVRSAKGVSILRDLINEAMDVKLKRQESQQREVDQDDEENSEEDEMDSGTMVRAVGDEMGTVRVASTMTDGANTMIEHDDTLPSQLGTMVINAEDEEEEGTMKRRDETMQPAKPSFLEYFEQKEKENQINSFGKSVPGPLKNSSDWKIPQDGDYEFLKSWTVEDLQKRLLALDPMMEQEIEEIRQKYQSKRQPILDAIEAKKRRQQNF

[14] = molecular target: Dual specificity tyrosine-phosphorylation-regulated kinase 1A (Homo sapiens) (UniProt Q13627); experiment: Inhibition of DYRK1A at 1 uM
[15] = molecular target: Receptor-type tyrosine-protein kinase FLT3 (Homo sapiens) (UniProt P36888); experiment: Inhibition of FLT3 at 5 uM
[16] = molecular target: Ribosomal protein S6 kinase alpha-1 (Homo sapiens) (UniProt Q15418); experiment: Inhibition of RPS6KA1 at 1 uM
[17] = molecular target: Fibroblast growth factor receptor 1 (Homo sapiens) (UniProt P11362); experiment: Inhibition of FGFR1 at 5 uM
[18] = molecular target: Hepatocyte growth factor receptor (Homo sapiens) (UniProt P08581); experiment: Inhibition of MET at 5 uM
[19] = molecular target: Insulin receptor (Homo sapiens) (UniProt P06213); experiment: Inhibition of INSR at 1 uM
Insulin receptor (Homo sapiens), sequence (P06213 28-758 limits assumed): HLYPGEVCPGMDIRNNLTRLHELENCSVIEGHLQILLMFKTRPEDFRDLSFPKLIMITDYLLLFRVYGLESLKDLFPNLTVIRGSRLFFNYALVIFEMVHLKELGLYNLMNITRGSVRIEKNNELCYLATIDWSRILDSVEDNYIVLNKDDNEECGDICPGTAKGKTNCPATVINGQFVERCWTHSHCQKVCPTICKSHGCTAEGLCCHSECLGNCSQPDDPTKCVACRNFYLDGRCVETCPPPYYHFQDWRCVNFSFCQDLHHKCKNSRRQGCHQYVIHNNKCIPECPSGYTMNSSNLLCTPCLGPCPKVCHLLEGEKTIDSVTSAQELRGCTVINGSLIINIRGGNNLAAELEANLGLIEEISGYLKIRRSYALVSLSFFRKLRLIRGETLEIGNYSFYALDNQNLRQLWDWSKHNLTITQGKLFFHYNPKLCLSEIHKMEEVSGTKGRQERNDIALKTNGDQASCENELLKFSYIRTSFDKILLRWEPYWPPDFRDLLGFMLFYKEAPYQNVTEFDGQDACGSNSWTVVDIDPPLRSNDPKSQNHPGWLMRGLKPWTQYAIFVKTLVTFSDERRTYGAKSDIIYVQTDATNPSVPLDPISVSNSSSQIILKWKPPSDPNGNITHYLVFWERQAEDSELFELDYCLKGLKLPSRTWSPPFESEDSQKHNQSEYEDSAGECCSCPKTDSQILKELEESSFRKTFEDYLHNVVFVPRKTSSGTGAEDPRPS
Insulin receptor (Homo sapiens), sequence (P06213 763-1382 limits assumed): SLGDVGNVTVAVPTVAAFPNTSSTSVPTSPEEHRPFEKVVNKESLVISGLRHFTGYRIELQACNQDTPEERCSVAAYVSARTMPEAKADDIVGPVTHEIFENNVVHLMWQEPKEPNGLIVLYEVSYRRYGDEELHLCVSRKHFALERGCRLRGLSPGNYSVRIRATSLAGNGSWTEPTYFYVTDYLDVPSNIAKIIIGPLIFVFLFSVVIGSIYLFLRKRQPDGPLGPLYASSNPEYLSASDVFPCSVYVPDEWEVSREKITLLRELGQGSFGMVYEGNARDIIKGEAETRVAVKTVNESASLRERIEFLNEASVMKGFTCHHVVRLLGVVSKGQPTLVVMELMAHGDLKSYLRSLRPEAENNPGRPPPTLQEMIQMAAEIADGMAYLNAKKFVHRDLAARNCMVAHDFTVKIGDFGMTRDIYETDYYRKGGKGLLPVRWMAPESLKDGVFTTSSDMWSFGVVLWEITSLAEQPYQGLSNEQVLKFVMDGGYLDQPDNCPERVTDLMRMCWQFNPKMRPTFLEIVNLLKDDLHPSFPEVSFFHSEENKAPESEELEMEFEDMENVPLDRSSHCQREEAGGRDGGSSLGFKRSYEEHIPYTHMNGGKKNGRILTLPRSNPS

[20] = molecular target: RAC-alpha serine/threonine-protein kinase (Homo sapiens) (UniProt P31749); experiment: Inhibition of AKT1 at 1 uM
[21] = molecular target: T3, Serine/threonine-protein kinase Sgk1 (Homo sapiens) (UniProt O00141); experiment: Inhibition of SGK1 at 1 uM
T3 sequence (whole entry): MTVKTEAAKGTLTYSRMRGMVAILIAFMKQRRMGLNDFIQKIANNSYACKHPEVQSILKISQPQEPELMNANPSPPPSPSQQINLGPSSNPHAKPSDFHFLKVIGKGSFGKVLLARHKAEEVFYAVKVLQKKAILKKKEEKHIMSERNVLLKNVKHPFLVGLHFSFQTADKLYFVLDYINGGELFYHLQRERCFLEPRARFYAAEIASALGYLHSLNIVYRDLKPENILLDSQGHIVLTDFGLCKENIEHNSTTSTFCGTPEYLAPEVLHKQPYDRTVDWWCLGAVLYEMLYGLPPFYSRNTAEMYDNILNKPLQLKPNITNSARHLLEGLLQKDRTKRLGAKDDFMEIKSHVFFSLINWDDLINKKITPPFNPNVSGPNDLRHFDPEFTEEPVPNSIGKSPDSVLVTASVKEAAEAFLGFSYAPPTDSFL

[22] = molecular target: Fibroblast growth factor receptor 1 (Homo sapiens) (UniProt P11362); experiment: Inhibition of FGFR1 at 1 uM
CYP2D6 = CYP2D6 (Homo sapiens, UniProt P10635); experiment: Inhibition of CYP2D6 at 10 uM; assay type: ADME
CYP2D6, sequence (P10635 whole entry): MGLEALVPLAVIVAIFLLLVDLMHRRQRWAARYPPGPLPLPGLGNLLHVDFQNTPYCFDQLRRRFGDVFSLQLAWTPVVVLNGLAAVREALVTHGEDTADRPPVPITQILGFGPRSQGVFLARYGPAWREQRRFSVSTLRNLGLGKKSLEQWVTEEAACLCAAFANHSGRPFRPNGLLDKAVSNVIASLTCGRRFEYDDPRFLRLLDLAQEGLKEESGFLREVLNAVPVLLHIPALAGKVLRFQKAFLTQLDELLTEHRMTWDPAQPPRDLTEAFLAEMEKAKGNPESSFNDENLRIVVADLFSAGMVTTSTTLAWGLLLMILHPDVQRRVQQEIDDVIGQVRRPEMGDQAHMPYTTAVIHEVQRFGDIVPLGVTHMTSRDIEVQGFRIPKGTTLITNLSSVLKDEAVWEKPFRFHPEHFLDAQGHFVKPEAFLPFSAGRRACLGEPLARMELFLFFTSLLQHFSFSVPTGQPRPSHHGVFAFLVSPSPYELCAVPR

[23] = Stability in mouse liver microsomes at 1 uM incubated for 15 mins; assay type: ADME, Microsome; details: read-out: Stability
[24] = molecular target: Phosphatidylinositol 4,5-bisphosphate 3-kinase catalytic subunit alpha isoform (Homo sapiens, UniProt P42336); experiment: Inhibition of PI3Kalpha in human U2OS cells assessed as inhibition of AKT Ser 473 phosphorylation by Western blot; assay type: cell-based
[25] = Stability in human liver microsomes at 1 uM incubated for 15 mins; assay type: ADME, Microsome; details: read-out: Stability
[26] = molecular target: Serine/threonine-protein kinase mTOR (Homo sapiens, UniProt P42345); experiment: Inhibition of mTOR

Focal adhesion kinase 1 (Homo sapiens), sequence (Q05397 2-1052 limits assumed): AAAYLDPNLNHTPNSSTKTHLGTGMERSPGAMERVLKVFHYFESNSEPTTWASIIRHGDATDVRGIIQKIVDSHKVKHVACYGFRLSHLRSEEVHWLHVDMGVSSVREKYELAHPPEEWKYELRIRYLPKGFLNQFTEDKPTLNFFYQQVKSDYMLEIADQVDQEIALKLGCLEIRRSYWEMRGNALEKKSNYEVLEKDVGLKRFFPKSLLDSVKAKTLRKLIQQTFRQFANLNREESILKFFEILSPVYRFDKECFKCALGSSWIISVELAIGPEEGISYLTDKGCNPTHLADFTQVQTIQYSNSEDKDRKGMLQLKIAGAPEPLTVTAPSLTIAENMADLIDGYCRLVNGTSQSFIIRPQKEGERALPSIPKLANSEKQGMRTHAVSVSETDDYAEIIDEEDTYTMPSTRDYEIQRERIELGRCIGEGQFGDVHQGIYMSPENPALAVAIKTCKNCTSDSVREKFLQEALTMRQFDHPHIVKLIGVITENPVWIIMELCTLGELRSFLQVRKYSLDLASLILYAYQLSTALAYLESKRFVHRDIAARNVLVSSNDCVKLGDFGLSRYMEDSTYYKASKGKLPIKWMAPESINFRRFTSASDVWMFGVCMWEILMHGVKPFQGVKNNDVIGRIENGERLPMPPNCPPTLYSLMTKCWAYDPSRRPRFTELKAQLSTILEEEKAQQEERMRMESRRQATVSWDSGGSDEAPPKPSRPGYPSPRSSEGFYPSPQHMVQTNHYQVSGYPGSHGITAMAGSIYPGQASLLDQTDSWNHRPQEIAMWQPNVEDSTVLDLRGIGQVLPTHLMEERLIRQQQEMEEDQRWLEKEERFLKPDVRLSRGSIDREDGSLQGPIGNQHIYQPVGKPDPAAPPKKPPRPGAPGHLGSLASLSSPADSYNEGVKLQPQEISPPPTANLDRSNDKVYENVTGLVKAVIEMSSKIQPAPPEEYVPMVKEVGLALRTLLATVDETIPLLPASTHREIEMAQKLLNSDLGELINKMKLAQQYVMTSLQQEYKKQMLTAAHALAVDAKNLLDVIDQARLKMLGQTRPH

SMILES	inhibition [1] [%]	inhibition [2] [%]	inhibition [3] [%]	inhibition [4] [%]	inhibition [5] [%]	inhibition [6] [%]	inhibition [7] [%]	inhibition [8] [%]	inhibition [9] [%]	inhibition [10] [%]	inhibition [11] [%]	inhibition [12] [%]	inhibition [13] [%]	inhibition [14] [%]	inhibition [15] [%]	inhibition [16] [%]	inhibition [17] [%]	inhibition [18] [%]	inhibition [19] [%]	inhibition [20] [%]	also measured
Cc1nc(N)ncc1-c1cn2cc(CN3CCN(S(C)(=O)=O)CC3)nc2c(N2CCOCC2)n1	< 30	< 30	< 30	< 30	< 30	< 30	< 30	< 30	< 30	< 30	< 30	< 30	< 30	< 30	< 30	< 30	< 30	< 30	< 30	< 30	inhibition [21]: < 30%; inhibition [22]: < 30%
Cc1c(CN2CCN(S(C)(=O)=O)CC2)nc2c(N3CCOCC3)nc(-c3cnc(N)nc3)cn12	< 30	< 30	< 30	< 30	< 30	< 30	< 30	< 30	< 30	< 30	< 30	< 30	< 30	< 30	< 30	< 30	< 30	< 30	< 30	< 30	inhibition at 10 µM (CYP2D6): < 30%; remaining at 0.25 h, 1 µM [23]: 80%; IC50 [24]: 15.4 nM; remaining at 0.25 h, 1 µM [25]: 88%; IC50 [26]: 1260 nM; inhibition [21]: < 30%; inhibition [22]: < 30%
CS(=O)(=O)N1CCN(Cc2cn3cc(-c4cnc(N)nc4)nc(N4CCOCC4)c3n2)CC1	< 30	< 30	< 30	< 30	< 30	< 30	< 30	< 30	< 30	< 30	< 30	< 30	< 30	< 30	< 30	< 30	< 30	< 30	< 30	< 30	inhibition at 10 µM (CYP2D6): < 30%; remaining at 0.25 h, 1 µM [23]: 88%; remaining at 0.25 h, 1 µM [25]: 93%; IC50 [26]: 4880 nM; inhibition [21]: < 30%; inhibition [22]: < 30%
CS(=O)(=O)N1CCN(Cc2cn3c(Cl)c(-c4cnc(N)nc4)nc(N4CCOCC4)c3n2)CC1	< 30	< 30	< 30	< 30	< 30	< 30	< 30	< 30	< 30	< 30	< 30	< 30	< 30	< 30	< 30	< 30	< 30	< 30	< 30	< 30	inhibition at 10 µM (CYP2D6): < 30%; remaining at 0.25 h, 1 µM [23]: 91%; IC50 [24]: 5.2 nM; remaining at 0.25 h, 1 µM [25]: 86%; IC50 [26]: 5710 nM; inhibition [21]: < 30%; inhibition [22]: < 30%
CS(=O)(=O)N1CCN(Cc2nc3c(N4CCOCC4)nc(-c4cnc(N)nc4)cn3c2Br)CC1	< 30	< 30	< 30	< 30	< 30	< 30	< 30	< 30	< 30	< 30	< 30	< 30	< 30	< 30	< 30	< 30	< 30	< 30	< 30	< 30	inhibition at 10 µM (CYP2D6): < 30%; remaining at 0.25 h, 1 µM [23]: 43%; IC50 [24]: 8.1 nM; remaining at 0.25 h, 1 µM [25]: 70%; IC50 [26]: 5100 nM; inhibition [21]: < 30%; inhibition [22]: < 30%
